Values joined by “and” are separate entries in the source; they are usually repeats but may differ in a detail not shown here. Equal values may be shown once. “Also recorded” adds a separate entry of the source. Read-outs that look alike come from different tables or passages of the source.
Assays:
EhAGCK2 = assay: ADP-Glo kinase assay with peptide substrates / ATP, EhAGCK2 WT; type: biochemical, Entamoeba histolytica; settings: for ATP Vmax / Km: mean ± SE, n = 6
Description: (§1) The phosphorylation activity of kinases was measured using the ADP-Glo kinase assay kit according to the manufacturer’s protocol with few modifications (Promega, Madison, WI, Catalogue number V6930). Assays were performed in a Corning 384-well low-volume white round bottom polystyrene NBS microplate with a total volume of 32 μl in the ratio of 1:1:2, corresponding to the kinase reaction, ADP-Glo reagent, and detection reagent, respectively. The kinase reaction was performed in an 8 μl volume containing 4 μl of purified protein kinases, 2 μl of peptide substrate, and 2 μl of ATP (Promega, Madison, WI). The working concentration of all the kinase reaction components was prepared in the standard kinase assay buffer (40 mM Tris-Cl pH 7.5, 20 mM MgCl2, 2 mM DTT). Along with other controls, only buffer-negative controls without protein kinase, substrate, and ATP were included in the kinase assay. Kinase assay reactions in each well were started immediately by adding ATP. The reactions were allowed to continue for 1 h at 30°C in the incubator chamber without shaking. The kinase assay was quenched by adding 8 μl of ADP-Glo reagent in each well before adding ADP-Glo reagent. The reaction plate was incubated for 5 min at room temperature. Termination reactions were allowed to proceed for 40 min at room temperature. ADP-Glo reagent, in addition to quenching the reaction, scavenges the unconsumed ATP from the reaction. In the final step of the ADP-Glo kinase assay, 16 μl of kinase detection reagent was added to each well and incubated for 40 min to simultaneously convert ADP to ATP and allow the newly synthesised ATP to be measured using a luciferase/luciferin reaction. The luminescent signal generated was measured using a SpectraMax i3x Multi-Mode Microplate Reader (Molecular Devices), and it was proportional to the ADP concentration produced and correlated with the kinase activity.
(§2) Standard curves were constructed by plotting the saturating relative light units (RLU) for each sample against the concentration of the peptide substrate or ATP in the reaction, following the previously reported method. The slope of the standard curve was determined and used to convert the reaction rate velocities. Velocities were expressed in μM/min by calculating the rate of reaction (DY/DX) for each reaction, where DY represented the difference between the luminescence measurements at the beginning and end of the reaction, and DX denoted the duration of the reaction (total time of reaction: 60 min). The converted velocities were plotted against the substrate concentration, and the data were fitted to the Michaelis-Menten equation to determine Km and Vmax.
(§3) The kinase assay data presented here are the mean ± standard error (SE) of n≥3 of three independent experiments. The Km and Vmax were determined from a direct, nonlinear fit of [V] versus [S] plots using the Michaelis-Menten equation: V=Vmax[S]/Km+[S] using the GraphPad Prism 9.0 software package (GraphPad Software Inc., CA, USA). Additionally, the Microscale Thermophoresis (MST) experiments were conducted using the Monolith NT.11.5 instrument, with triplicate runs. Statistical comparisons were made using Student’s t-test. Differences in mean values were considered significant at *p-value≤0.05, **p-value≤0.01, ***p-value≤0.001, ****p-value≤0.0001.

EhAGCK1 = assay: ADP-Glo kinase assay with peptide substrates / ATP, EhAGCK1 WT; type: biochemical, Entamoeba histolytica; settings: for phosphorylation by EhAGCK1 WT (words): 1 hr
Description: as §1, §2, §3

autophosphorylation = assay: ATP biotinylation kinase assay (autophosphorylation, SA-HRPO western blot); type: biochemical, Entamoeba histolytica; settings: 4 μM kinase (EhPDK1 2 μM), 20 μM biotin-labelled ATP, 40 mM Tris-Cl pH 7.8, 10 mM MgCl2, 2 mM DTT, 30°C, 1 h
Description: ATP biotinylation assays were performed in the presence of 4 μM of EhAGCK1 (WT, T275D, and KDD1) and EhAGCK2 (WT, T274D, and KDD2) along with 2 μM of wild-type EhPDK1 in the presence of activation buffer 40 mM Tris-Cl pH 7.8, 10 mM MgCl2, and 2 mM DTT and incubated at 30°C for 1 h. The reaction was triggered by adding 20 μM biotin-labelled ATP (Catalogue NU-970-BIO, Jena Bioscience). 20 μl of the reaction was collected at the indicated time point and quenched by the addition of 4x SDS-loading dye. After gel electrophoresis, phosphorylated proteins were visualized by immunoblotting using HRPO-conjugated streptavidin (Invitrogen).
ATP biotinylated protein samples were separated by SDS-PAGE and then electro-transferred to PVDF membrane (Pall life sciences). The membrane was blocked overnight by 5% BSA (G-Biosciences) in TBS-T (TBS with 0.1% Tween 20) and stained with Ponceau S. This blocking process was done overnight at 4°C. The membrane was then incubated with 1:1000 dilution of HRPO-conjugated streptavidin (Invitrogen) at room temperature. Following antibody incubation, the blots were carefully cleaned with TBS-T. Band detection was carried out with a Millipore ECL kit.

HsGSK3 peptide = assay: ADP-Glo kinase activity of kinase variants with human GSK3 peptide in MgCl2 and MnCl2 buffers; type: biochemical; settings: for kinase activity with HsGSK3 peptide in Mg2+ / without Mn2+ (words): kinase 0-80 μM
Description: as §1, §3

[1] = S3 Table, ADP-Glo, Michaelis-Menten fit at various substrate concentrations, 20 μM kinase, 250 μM ATP, read-out: Peptide Km in the presence of EhAGCK2
[2] = S3 Table, ADP-Glo, Michaelis-Menten fit at various substrate concentrations, 20 μM kinase, 250 μM ATP, mean ± SE, n = 6, read-out: Peptide Km in the presence of EhAGCK1

For `Nc1ncnc2c1ncn2[C@@H]1O[C@H](COP(=O)(O)OP(=O)(O)OP(=O)(O)O)[C@@H](O)[C@H]1O` [ATP, reference compound], the “ATP Vmax” value (EhAGCK2; EhAGCK2 WT 20 μM, 50 μM EhCoactosin peptide substrate, ATP 0-1000 μM) was 444.4 ± 18.5 µM/min, the Km (EhAGCK2; EhAGCK2 WT 20 μM, 50 μM EhCoactosin peptide substrate, ATP 0-1000 μM, read-out: ATP Km) was 92.1 ± 16 µM and the “ATP Vmax” value (EhAGCK2; EhAGCK2 WT 20 μM, 50 μM HsGSK3 peptide substrate, ATP 0-1000 μM) was 271.4 ± 30.5 µM/min. For the same molecule, the Km (EhAGCK2; EhAGCK2 WT 20 μM, 50 μM HsGSK3 peptide substrate, ATP 0-1000 μM, read-out: ATP Km) was 292 µM and 291 µM, the Km (EhAGCK1; EhAGCK1 WT 20 μM, 50 μM EhRhoGEF peptide substrate, ATP 0-1000 μM, mean ± SE, n = 6, read-out: ATP Km) was 125 ± 16 µM and the “ATP Vmax” value (EhAGCK1; EhAGCK1 WT 20 μM, 50 μM HsGSK3 peptide substrate, ATP 0-1000 μM, mean ± SE, n = 6) was 260.7 ± 9.4 µM/min. For the same molecule, the Km (EhAGCK1; EhAGCK1 WT 20 μM, 50 μM HsGSK3 peptide substrate, ATP 0-1000 μM, mean ± SE, n = 6, read-out: ATP Km) was 242 ± 22.2 µM.

“RRESVDYTNNK [Unconventional Myosin IB, peptide 754-764 of E. histolytica Unconventional myosin IB (EHI_110810)]” was tested, and the “phosphorylation by EhAGCK2 WT” value (EhAGCK2; 20 μM EhAGCK2 WT, 250 μM ATP, 1 hr) was “recognised as substrates by EhAGCK2 WT; also recorded: accepted as substrates by EhAGCK2 WT”, the Km (EhAGCK2; ADP-Glo luminescence, 20 μM EhAGCK2 WT, 250 μM ATP, peptide 0-200 μM, 30°C, 60 min, standard buffer 40 mM Tris-Cl pH 7.5, 20 mM MgCl2, 2 mM DTT, Michaelis-Menten fit, read-out: Km (peptide substrate)) was 1.34 ± 0.57 µM and the Km (EhAGCK2; [1]) was 1.34 ± 0.57 µM. It also gave a Km (EhAGCK1; [2]) of 3.63 ± 2.58 µM.

With “KTITPVVEDPCER [HEAT repeat domain-containing protein, peptide 661-673 of E. histolytica HEAT repeat domain-containing protein (EHI_050150)]” the Km (EhAGCK2; [1]) was 0.262 ± 0.2 µM, the “phosphorylation by EhAGCK1 WT (words)” value (EhAGCK1; 20 μM EhAGCK1 WT, 250 μM ATP) was “notable phosphorylation by EhAGCK1” and the Km (EhAGCK1; [2]) was 3.62 ± 1.34 µM.

In the case of “ELDSDEEQKELER [Filamin-A interacting protein]”, the Km (EhAGCK2; [1]) is reported as 0.147 µM, the “phosphorylation by EhAGCK1 WT (words)” value (EhAGCK1; 20 μM EhAGCK1 WT, 250 μM ATP) is reported as “recognized as substrates by EhAGCK1 WT” and the “phosphorylation by EhAGCK1 WT (words)” value (EhAGCK1; 20 μM EhAGCK1 WT, 250 μM ATP, listed as Filamin-A-interacting protein) is reported as “specifically phosphorylated”. For the same molecule, the Km (EhAGCK1; ADP-Glo luminescence, 20 μM EhAGCK1 WT, 250 μM ATP, peptide 0-200 μM, 30°C, 60 min, standard buffer 40 mM Tris-Cl pH 7.5, 20 mM MgCl2, 2 mM DTT, Michaelis-Menten fit, mean ± SE, n = 6, read-out: Km (peptide substrate)) was 3.28 ± 1.19 µM and the Km (EhAGCK1; [2]) was 3.28 ± 1.19 µM.

With “MAGIQLADEVTSVYNDF KLSHKYRYIV [Actophorin, peptide 1-27 of E. histolytica Actophorin (EHI_197480)]” the Km (EhAGCK2; [1]) was 0.258 ± 0.09 µM and the Km (EhAGCK1; [2]) was 2.83 ± 1.69 µM.

In the case of “KSPTIDEIK [Hypothetical protein, peptide 133-141 of E. histolytica Hypothetical protein (EHI_025430)]”, the Km (EhAGCK2; [1]) is reported as 0.197 ± 0.08 µM, the “phosphorylation by EhAGCK1 WT (words)” value (EhAGCK1; 20 μM EhAGCK1 WT, 250 μM ATP) is reported as “notable phosphorylation by EhAGCK1” and the Km (EhAGCK1; [2]) is reported as 2.56 ± 0.99 µM.

In the case of “SALDNGTYSPLLSPTR [RhoGEF-1, peptide 236-251 of E. histolytica RhoGEF-1 (EHI_159500)]”, the Km (EhAGCK2; [1]) is reported as 0.271 ± 0.17 µM and the Km (EhAGCK1; [2]) is reported as 4.42 ± 2.75 µM.

B1: EhAGCK1 WT: recombinant full-length wild-type His-tagged AGC family kinase 1 of E. histolytica (protein)
chain: MEEKTQGWLMKEGGSWKSWKKRYFVLDNDTLYYYKEQDKKTLMGTMNLSLATHITAVDNYHKKYENIIRICTPSRTFHLSAANEEERLAWLTSIICHSEKTNICKPRISSVPVTQKDFDVKCLLGKGAYGKVFLVEMISTHEIFAMKTIEKKQIIEYEEIEHTMSERRILSKLHHPFLVNLYYSFQTPTHLFYIIDYCPGGEFYYYLQKNGKVSEEDAKFYAAQILLAIEHLHSSNIVYRDIKPENILIGADGYLRLTDFGLSKENVTKENTTSTFCGTPEYLAPEVVVGKDYSEPVDWWGFGILIYEMIHGHAPFTSEDIQQLFQKIIHDPVSFPSASYPSADCKECIVMLLEKDPEKRLTDPNRIKSHCWFKGFDWEGLFQKKLSPPFVPVLKDKTDTSNFNEDIINETAKIDEGEVVDSKDYFNDFTYCK
modifications: left off: His tag, end not stated, kept
notes: recombinant full-length wild-type His-tagged AGC family kinase 1 of E. histolytica
B1 was tested, and the “autophosphorylation activity (words)” value (autophosphorylation) was “exhibited autophosphorylation activity”, the “autophosphorylation activity (words)” value (autophosphorylation; listed as EhAGCK1) was “able to accept biotin-ATP as substrate and underwent autophosphorylation” and the “kinase activity with HsGSK3 peptide in Mg2+ / without Mn2+ (words)” value (HsGSK3 peptide; 50 μM HsGSK3 peptide, 250 μM ATP) was “did not utilize the HsGSK3 peptide as a substrate”. For the same molecule, the “kinase activity with HsGSK3 peptide in Mg2+ / without Mn2+ (words)” value (HsGSK3 peptide; 50 μM HsGSK3 peptide, 250 μM ATP, listed as EhAGCK1) was “could not accept HsGSK3 peptide as substrate”, the “ion preference for kinase activity” value (HsGSK3 peptide; MgCl2 versus MnCl2 buffer, HsGSK3 peptide) was “only active in the presence of MnCl2 buffer; also recorded: maximum kinase activity in the presence of Mn^2+” and the “increase in kinase activity with HsGSK3 peptide in presence of Mn2+” value (HsGSK3 peptide; Mn2+ present, 50 μM HsGSK3 peptide, 250 μM ATP) was 16 fold. For the same molecule, the “Fold change (MgCl2: MnCl2)” value (HsGSK3 peptide; S1 Table, kinase activity in MgCl2 and MnCl2 buffers, 50 μM HsGSK3 peptide, 250 μM ATP, 60 min, 30°C) was 15.67.

B2: KDD2: kinase-dead domain EhAGCK2 (K147A and D242A) (protein)
chain: MSVKTGWGIKEGGSWKTWKRRMFKLSEGKIEYFKDEGMTKKMGDIELSKVTHVLAVDQYKKRKNLIRIITPSRTYHISVNEESDRDSWVEAIRGMIGDNKEKKTQEEKEENKISMEDFDIITLLGKGAFGKVMLVKYKKEGKIYAMATVEKAQIIDSNEVEHILSEKVVLSQINNPFLVNMHYSFQTPTHLVFILDYCAGGELFSYLQKHPAGLPEVDVKFYAAQIVLALEHMHSTGIIYRAIKPENILFEKDGYLRMTDFGLAKSTKKGTTNTFCGTPEYLAPEVVEGLDYNEYIDWWGLGILIYEMLFTQSPFLAETMEELYENILQREPKYPSTKPITEECMNFINSLLIKEPSKRLTDPDQIKTHPWFNGFNFDDLYKKKLTPPYVPKIQSQTDTSNFDDEITQEEVDLKTGVEVVADNRFFTDFTYVQK
modifications: left off: His tag, end not stated, kept
With B2 the “autophosphorylation activity (words)” value (autophosphorylation) was “remain inactive”.

— paper PMC11642994, “AGC family kinase of Entamoeba histolytica: Decoding the members biochemically” (PLOS Pathogens, 2024)
